In ChEMBL document CHEMBL1152405, “Bis-anthracenyl isoxazolyl amides have enhanced anticancer activity” (Bioorg Med Chem Lett, 2009):

What was measured:
Assay type in all cases: functional
[1] = test system: OVCAR-3; test: Growth inhibition of human OVCAR-3 cells after 24 hrs by MTT assay; conditions: OVCAR-3, 24 h
[2] = test system: OVCAR-5; test: Growth inhibition of human OVCAR5 cells after 24 hrs by MTT assay; conditions: OVCAR-5, 24 h
[3] = test system: SK-MEL-5; test: Growth inhibition of human SK-MEL-5 cells at 10 uM after 24 hrs by MTT assay relative to control; set-up: scale not given: the % may be the effect or the level left
[4] = test system: SK-OV-3; test: Growth inhibition of human SKOV3 cells after 24 hrs by MTT assay; conditions: SK-OV-3, 24 h
[5] = test system: A549; test: Growth inhibition of human A549 cells after 24 hrs by MTT assay; conditions: A549, 24 h
[6] = test system: EKVX; test: Growth inhibition of human EKVX cells after 24 hrs by MTT assay
[7] = Growth inhibition of human […] cells after 24 hrs by MTT assay
[8] = test system: TK-10; test: Growth inhibition of human TK10 cells after 24 hrs by MTT assay; conditions: TK-10, 24 h
[9] = test system: OVCAR-8; test: Growth inhibition of human OVCAR8 cells at 10 uM after 24 hrs by MTT assay relative to control; set-up: scale not given: the % may be the effect or the level left
[10] = test system: A549; test: Growth inhibition of human A549 cells at 10 uM after 24 hrs by MTT assay relative to control; set-up: scale not given: the % may be the effect or the level left
[11] = test system: CAKI-1; test: Growth inhibition of human Caki1 cells after 24 hrs by MTT assay; conditions: CAKI-1, 24 h
[12] = test system: UACC-62; test: Growth inhibition of human UACC62 cells after 24 hrs by MTT assay; conditions: UACC-62, 24 h
[13] = test system: U-251; test: Growth inhibition of human U251 cells after 24 hrs by MTT assay; conditions: U-251, 24 h
[14] = test system: UO-31; test: Growth inhibition of human UO31 cells after 24 hrs by MTT assay; conditions: UO-31, 24 h
[15] = test system: NCI-H460; test: Growth inhibition of human NCI-H460 cells after 24 hrs by MTT assay; conditions: NCI-H460, 24 h
[16] = read-out: LC50 (the source's name)
[17] = read-out: pLC50 (the source's name) (converted)

Cc1onc(-c2c3ccccc3c(Cl)c3ccccc23)c1C(=O)Nc1cc(C(=O)NCCCN(C)CCCNC(=O)c2cc(NC(=O)c3c(-c4c5ccccc5c(Cl)c5ccccc45)noc3C)cn2C)n(C)c1
TGI [1]: 2610 nM | GI50 ([1]; read-out: GI50): 1310 nM | CC50 [1, 16]: 5190 nM | GI50 ([1]; read-out: pGI50 (converted)): 1320 nM | CC50 [1, 17]: 5130 nM | TGI [2]: 2780 nM | GI50 ([2]; read-out: GI50): 1470 nM | CC50 [2, 16]: 5270 nM | GI50 ([2]; read-out: pGI50 (converted)): 1480 nM | CC50 [2, 17]: 5250 nM | Activity [3]: -100% | TGI [4]: 2870 nM | GI50 ([4]; read-out: GI50): 1540 nM | CC50 [4, 16]: 5360 nM | GI50 ([4]; read-out: pGI50 (converted)): 1550 nM | CC50 [4, 17]: 5370 nM | TGI [5]: 2850 nM | GI50 ([5]; read-out: GI50): 1280 nM | GI50 ([5]; read-out: pGI50 (converted)): 1290 nM | TGI [6]: 5270 nM | GI50 ([6]; read-out: GI50): 1910 nM | CC50 [6, 16]: 100000 nM | GI50 ([6]; read-out: pGI50 (converted)): 1910 nM | CC50 [6, 17]: > 100000 nM | TGI [7]: 3380 nM | GI50 ([7]; read-out: GI50): 1390 nM | CC50 [7, 16]: 8210 nM | GI50 ([7]; read-out: pGI50 (converted)): 1380 nM | CC50 [7, 17]: 8130 nM | TGI [8]: 4590 nM | GI50 ([8]; read-out: GI50): 2150 nM | CC50 [8, 16]: 9770 nM | GI50 ([8]; read-out: pGI50 (converted)): 2140 nM | CC50 [8, 17]: 9770 nM | Activity [9]: -63.16% | Activity [10]: -59.15% | TGI [11]: 5850 nM | GI50 ([11]; read-out: GI50): 2400 nM | CC50 [11, 16]: 31300 nM | GI50 ([11]; read-out: pGI50 (converted)): 2400 nM | CC50 [11, 17]: 31600 nM | TGI [12]: 3440 nM | GI50 ([12]; read-out: GI50): 1700 nM | GI50 ([12]; read-out: pGI50 (converted)): 1700 nM | GI50 ([13]; read-out: GI50): 1500 nM | GI50 ([13]; read-out: pGI50 (converted)): 1510 nM | TGI [14]: 3400 nM | GI50 ([14]; read-out: GI50): 1780 nM | GI50 ([14]; read-out: pGI50 (converted)): 1780 nM | TGI [15]: 2230 nM | GI50 ([15]; read-out: GI50): 1050 nM | CC50 [15, 16]: 4720 nM
